In patent publication US12534452B2, “N-(1H-imidazol-2-yl)benzamide compound and pharmaceutical composition comprising the same as active ingredient” (KAINOS MEDICINE, INC., priority 2019, dated 2026):

Biological target: IRAK4 (Homo sapiens (Human), UniProt Q9NWZ3)
Assay: In vitro IRAK4 phosphorylation activity assay
Assay type: biochemical
Details: [γ-33P]-ATP, myelin basic protein substrate, 40 minutes at room temperature; categories
Outline: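 Radiometric filter-binding assay, no compound–kinase preincubation; 8 mM MOPS pH 7.0, 0.2 mM EDTA, 10 mM Mg acetate, 0.33 mg/mL myelin basic protein substrate, [γ-33P]-ATP. Reaction 40 min at room temperature, stopped with phosphoric acid, scintillation counting; IC50 reported in categories.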

Sequence of IRAK4 (Q9NWZ3 whole entry): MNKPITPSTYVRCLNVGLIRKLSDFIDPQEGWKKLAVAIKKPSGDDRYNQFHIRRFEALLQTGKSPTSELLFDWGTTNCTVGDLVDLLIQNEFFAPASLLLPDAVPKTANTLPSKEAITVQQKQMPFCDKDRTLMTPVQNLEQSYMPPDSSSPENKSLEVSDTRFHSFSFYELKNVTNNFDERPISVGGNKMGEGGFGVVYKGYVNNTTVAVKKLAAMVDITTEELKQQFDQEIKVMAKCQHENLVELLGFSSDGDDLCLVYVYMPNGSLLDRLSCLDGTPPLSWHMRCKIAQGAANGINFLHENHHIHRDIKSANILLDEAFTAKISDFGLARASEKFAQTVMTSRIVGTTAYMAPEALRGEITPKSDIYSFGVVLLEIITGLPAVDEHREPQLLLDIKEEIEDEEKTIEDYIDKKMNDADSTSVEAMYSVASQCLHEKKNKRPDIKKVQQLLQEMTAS

IC50	SMILES
50 to 100 nM	CN1CCN(NC(=O)CCCc2cn(-c3ccccc3)c(NC(=O)c3cccc(-c4cnn(C)c4)c3)n2)CC1 [Example 153, 3-(1-methyl-1H-pyrazol-4-yl)-N-(4-(4-((4-methylpiperazin-1-yl)amino)-4-oxobutyl)-1-phenyl-1H-imidazol-2-yl)benzamide]
50 to 100 nM	O=C(Nc1nc(CCCCCCN2CCCCC2)cn1-c1ccccc1)c1cccc(-c2ccc3[nH]ccc3c2)c1 [Example 253, 3-(1H-indol-5-yl)-N-(1-phenyl-4-(6-(piperidin-1-yl)hexyl)-1H-imidazol-2-yl)benzamide]
< 50 nM	CN1CCN(C(=O)CCCCCc2cn(-c3ccccc3)c(NC(=O)c3cccc(-c4cnn(C)c4)c3)n2)CC1 [Example 201, 3-(1-methyl-1H-pyrazol-4-yl)-N-(4-(6-(4-methylpiperazin-1-yl)-6-oxohexyl)-1-phenyl-1H-imidazol-2-yl)benzamide]
> 100 nM	O=C(O)Cc1cn(-c2ccccc2)c(NC(=O)c2cccc(-c3cn[nH]c3)c2)n1 [Example 43, 2-(2-(3-(1H-pyrazol-4-yl)benzamido)-1-phenyl-1H-imidazol-4-yl)acetic acid]
< 50 nM	O=C(Nc1nc(CCCCN2CCCCC2)cn1-c1ccccc1)c1cccc(-c2cn[nH]c2)c1 [Example 113, N-(1-phenyl-4-(4-(piperidin-1-yl)butyl)-1H-imidazol-2-yl)-3-(1H-pyrazol-4-yl)benzamide]
< 50 nM	COC1CCN(C(=O)CCCc2cn(-c3ccccc3)c(NC(=O)c3cccc(-c4cnn(C)c4)c3)n2)CC1 [Example 177, N-(4-(4-(4-methoxypiperidin-1-yl)-4-oxobutyl)-1-phenyl-1H-imidazol-2-yl)-3-(1-methyl-1H-pyrazol-4-yl)benzamide]
> 100 nM	COC[C@H]1CCCN1C(=O)Cc1cn(-c2ccccc2)c(NC(=O)c2cccc(-c3cn[nH]c3)c2)n1 [Example 47, (R)—N-(4-(2-(2-(methoxymethyl)pyrrolidin-1-yl)-2-oxoethyl)-1-phenyl-1H-imidazol-2-yl)-3-(1H-pyrazol-4-yl)benzamide]
< 50 nM	COC[C@H]1CCCN1NC(=O)CCCc1cn(-c2ccccc2)c(NC(=O)c2cccc(-c3cn[nH]c3)c2)n1 [Example 54, (R)—N-(4-(4-((2-(methoxymethyl)pyrrolidin-1-yl)amino)-4-oxobutyl)-1-phenyl-1H-imidazol-2-yl)-3-(1H-pyrazol-4-yl)benzamide]
< 50 nM	Cn1cc(-c2cccc(C(=O)Nc3nc(CCCC(=O)NC4CCC(O)CC4)cn3-c3ccccc3)c2)cn1 [Example 156, N-(4-(4-(((1R,4R)-4-hydroxycyclohexyl)amino)-4-oxobutyl)-1-phenyl-1H-imidazol-2-yl)-3-(1-methyl-1H-pyrazol-4-yl)benzamide]
< 50 nM	C[C@@H]1CCC[C@H](C)N1C(=O)CCCCCc1cn(-c2ccccc2)c(NC(=O)c2cccc(-c3cn[nH]c3)c2)n1 [Example 97, N-(4-(6-((2R,6S)-2,6-dimethylpiperidin-1-yl)-6-oxohexyl)-1-phenyl-1H-imidazol-2-yl)-3-(1H-pyrazol-4-yl)benzamide]
< 50 nM	Cn1cc(-c2cccc(C(=O)Nc3nc(CCCC(=O)N4CCC[C@@H](N)C4)cn3-c3ccccc3)c2)cn1 [Example 210, (R)—N-(4-(4-(3-aminopiperidin-1-yl)-4-oxobutyl)-1-phenyl-1H-imidazol-2-yl)-3-(1-methyl-1H-pyrazol-4-yl)benzamide]
< 50 nM	CNC(=O)CCc1cn(-c2ccccc2)c(NC(=O)c2cccc(-c3cn[nH]c3)c2)n1 [Example 33, N-(4-(3-(methylamino)-3-oxopropyl)-1-phenyl-1H-imidazol-2-yl)-3-(1H-pyrazol-4-yl)benzamide]
< 50 nM	CN1CCN(CCCc2cn(-c3ccccc3)c(NC(=O)c3cccc(-c4cn[nH]c4)c3)n2)CC1 [Example 108, N-(4-(3-(4-methylpiperazin-1-yl)propyl)-1-phenyl-1H-imidazol-2-yl)-3-(1H-pyrazol-4-yl)benzamide]
50 to 100 nM	O=C(Nc1nc(CCC(=O)N2CCCC[C@@H]2C(F)(F)F)cn1-c1ccccc1)c1cccc(-c2cn[nH]c2)c1 [Example 39, (R)—N-(4-(3-oxo-3-(2-(trifluoromethyl)piperidin-1-yl)propyl)-1-phenyl-1H-imidazol-2-yl)-3-(1H-pyrazol-4-yl)benzamide]
< 50 nM	O=C(Nc1nc(CCCCCC(=O)N2CCCCCC2)cn1-c1ccccc1)c1cccc(-c2ccc3[nH]ncc3c2)c1 [Example 241, N-(4-(6-(azepan-1-yl)-6-oxohexyl)-1-phenyl-1H-imidazol-2-yl)-3-(1H-indazol-5-yl)benzamide]
50 to 100 nM	Cn1cc(-c2cccc(C(=O)Nc3nc(CCCC(=O)N[C@H]4CC[C@H](N)CC4)cn3-c3ccccc3)c2)cn1 [Example 215, N-(4-(4-(((1R,4R)-4-aminocyclohexyl)amino)-4-oxobutyl)-1-phenyl-1H-imidazol-2-yl)-3-(1-methyl-1H-pyrazol-4-yl)benzamide]
< 50 nM	O=C(Nc1nc(CCCCN2CCCCC2)cn1-c1ccccc1)c1cccc(-c2cccc3[nH]ncc23)c1 [Example 257, 3-(1H-indazol-4-yl)-N-(1-phenyl-4-(4-(piperidin-1-yl)butyl)-1H-imidazol-2-yl)benzamide]
< 50 nM	O=C(Nc1nc(CCCCCCN2CCCCC2)cn1-c1ccccc1)c1cccc(-c2cn[nH]c2)c1 [Example 102, N-(1-phenyl-4-(6-(piperidin-1-yl)hexyl)-1H-imidazol-2-yl)-3-(1H-pyrazol-4-yl)benzamide]
< 50 nM	C[C@H]1CCCCN1C(=O)CCCCCc1cn(-c2ccccc2)c(NC(=O)c2cccc(-c3cn[nH]c3)c2)n1 [Example 95, (S)—N-(4-(6-(2-methylpiperidin-1-yl)-6-oxohexyl)-1-phenyl-1H-imidazol-2-yl)-3-(1H-pyrazol-4-yl)benzamide]
< 50 nM	O=C(Nc1nc(CCCCCO)cn1-c1ccccc1)c1cccc(-c2cn[nH]c2)c1 [Example 116, N-(4-(5-hydroxypentyl)-1-phenyl-1H-imidazol-2-yl)-3-(1H-pyrazol-4-yl)benzamide]
> 100 nM	O=C(CCCc1cn(-c2ccccc2)c(NC(=O)c2cccc(-c3cccc4cn[nH]c34)c2)n1)NC1CC1 [Example 248, N-(4-(4-(cyclopropylamino)-4-oxobutyl)-1-phenyl-1H-imidazol-2-yl)-3-(1H-indazol-7-yl)benzamide]
< 50 nM	Nc1ccc(-c2cccc(C(=O)Nc3nc(CCCCCC(=O)N4CCCCC4)cn3-c3ccccc3)c2)cn1 [Example 271, 3-(6-aminopyridin-3-yl)-N-(4-(6-oxo-6-(piperidin-1-yl)hexyl)-1-phenyl-1H-imidazol-2-yl)benzamide]
< 50 nM	O=C(Nc1nc(CCC(=O)N2CCCC[C@H]2C(F)(F)F)cn1-c1ccccc1)c1cccc(-c2cn[nH]c2)c1 [Example 38, (S)—N-(4-(3-oxo-3-(2-(trifluoromethyl)piperidin-1-yl)propyl)-1-phenyl-1H-imidazol-2-yl)-3-(1H-pyrazol-4-yl)benzamide]
< 50 nM	Cn1cc(-c2cccc(C(=O)Nc3nc(CCCC(=O)Nc4ccc5c(cnn5C)c4)cn3-c3ccccc3)c2)cn1 [Example 191, N-(4-(4-((1-methyl-1H-indazol-5-yl)amino)-4-oxobutyl)-1-phenyl-1H-imidazol-2-yl)-3-(1-methyl-1H-pyrazol-4-yl)benzamide]
